In general, IC50 refers to the midpoint of a concentration-inhibition curve. The low end stands for greater potency, the high end for weaker potency.

Structures are written as SMILES.

This is an account of results in patent US9029531B2 (Agios Pharmaceuticals, Inc., priority 2012, dated 2015).

The target in this assay is T1, glutaminase (GAC) (Homo sapiens, UniProt O94925).
T1 sequence (O94925 55-598 isoform O94925-3 limits assumed): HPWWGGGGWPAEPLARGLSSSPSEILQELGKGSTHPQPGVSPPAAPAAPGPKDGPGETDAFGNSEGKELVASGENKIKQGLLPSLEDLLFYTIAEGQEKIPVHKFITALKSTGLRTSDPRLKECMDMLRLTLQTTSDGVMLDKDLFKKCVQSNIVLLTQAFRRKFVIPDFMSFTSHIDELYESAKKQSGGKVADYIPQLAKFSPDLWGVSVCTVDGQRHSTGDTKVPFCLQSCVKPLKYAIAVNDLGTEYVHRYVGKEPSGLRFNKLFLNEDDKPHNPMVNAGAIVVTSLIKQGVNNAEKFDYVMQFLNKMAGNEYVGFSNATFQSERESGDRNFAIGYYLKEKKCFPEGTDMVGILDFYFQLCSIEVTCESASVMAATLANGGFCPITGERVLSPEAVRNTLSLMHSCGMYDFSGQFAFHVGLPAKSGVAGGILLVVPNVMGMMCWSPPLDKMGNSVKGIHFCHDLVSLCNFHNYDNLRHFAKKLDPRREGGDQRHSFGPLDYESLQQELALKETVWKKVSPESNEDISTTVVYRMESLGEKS
Description: Glutaminase coupled endpoint enzymatic assay (Example A). To be noted: inhibition of glutaminase; assay of Example A or Example B. Type of assay: biochemical. The source says: In certain embodiments, exemplary compounds of Formula I include the compounds described in Table 1 and in the Examples. A compound described herein may be tested for its ability to inhibit glutaminase, e.g., by an assay as described in the Examples. For simplicity, the inhibition activity of these compounds is represented as an IC50 tested in an assay of Example A or Example B in Table 1. […] “N/A” refers to compounds wherein the IC50 is unavailable.
In this example, the enzymatic activity of glutaminase is measured through a coupled endpoint assay. Glutamine and phosphate are supplied to GAC at a concentration equal to Km and AC50, respectively, and GAC concentration is adjusted to give a linear reaction for 60 minutes. The glutamate produced is converted to 2-OG by a kinetic excess of glutamate dehydrogenase. This second step is configured for 2×Km for NAD, since excess NAD is inhibitory. However, a kinetic excess of the third coupling enzyme, diaphorase, recycles NAD from NADH to keep the NAD concentration constant during the timecourse of the assay. Diaphorase, also supplied in kinetic excess, oxidizes NADH produced by GDH back to NAD with the concomitant reduction of rezasurin to the highly fluorescent resorufin. Resorufin in measured after the assay is stopped with SDS by Ex544/Em590. A reduction in the signal indicates inhibition of some component of the coupled enzyme system. Prospective hits are counterscreened against GDH/diaphorase alone to remove hits to the coupling enzyme system in a second assay.
2. Buffers • 2× Buffer (300 mM NaCl, 100 mM HEPES pH 8.5, 0.1% BSA, 0.5 mM EDTA, 100 mM sodium phosphate pH 8.5) • 5× Substrate Mix (1× Buffer final concentration, with 13 mM glutamine, 100 μM resazurin, 50 μg/ml diaphorase) • 1.2× Enzyme Mix (1× Buffer final concentration, with 0.875 μg/ml GAC, 1.56 mM NAD, 6.25 units/ml GDH) • Stop Mix (6% SDS in ddH2O) Reaction Procedure • 1. Add 1 μl compound in 100% DMSO • 2. Add 40 μl of Enzyme Mix and incubate for 60 minute at room temperature • 3. Add 10 μl of Substrate Mix to start reaction • 4. Stop reaction with 25 μl of 6% SDS and read Ex544 Em 590
In turn, `O=C(Cc1cccnc1)Nc1nnc(C2CCC(c3nnc(NC(=O)Cc4cccnc4)s3)C2)s1` (centres unmarked) [Compound 103] had an IC50 of 100 to 500 nM. For the molecule `COc1cccc(CC(=O)Nc2nnc([C@@H]3CC[C@H](c4nnc(NC(=O)Cc5cccc(OC)c5)s4)C3)s2)c1` [Compound 107], the IC50 fell in the range of 100 to 500 nM. Molecule `COc1cccc(CC(=O)Nc2nnc([C@@H]3CC[C@@H](c4nnc(NC(=O)Cc5cccc(OC)c5)s4)C3)s2)c1` [Compound 108] yielded an IC50 of less than 100 nM.

On to `COc1ccc(CC(=O)Nc2nnc(C3CCC(c4nnc(NC(=O)Cc5ccc(OC)cc5)s4)C3)s2)cc1` (centres unmarked) [Compound 109], for which the IC50 lay within 100 to 500 nM. `O=C(Cc1cccc([N+](=O)[O-])c1)Nc1nnc(C2CCC(c3nnc(NC(=O)Sc4cccc([N+](=O)[O-])c4)s3)C2)s1` (centres unmarked) [Compound 110] registered an IC50 of 100 to 500 nM. Regarding `COc1ccccc1CC(=O)Nc1nnc([C@@H]2CC[C@@H](c3nnc(NC(=O)Cc4ccccc4OC)s3)C2)s1` [Compound 117], the IC50 lay in the range of 500 to 1000 nM. The value for `O=C(Cc1cccc(Br)n1)Nc1nnc([C@H]2CCC[C@H](c3nnc(NC(=O)Cc4cccc(Br)n4)s3)C2)s1` [Compound 118, N,N′-(5,5′-((1S,3S)-cyclohexane-1,3-diyl)bis(1,3,4-thiadiazole-5,2-diyl))bis(2-(6-bromopyridin-2-yl)acetamide)] was less than 100 nM; that for `COc1ccnc(CC(=O)Nc2nnc([C@@H]3CCC[C@@H](c4nnc(NC(=O)Cc5cc(OC)ccn5)s4)C3)s2)c1` [Compound 119] was less than 100 nM; that for `COc1cccc(CC(=O)Nc2nnc(C3CCCCC(c4nnc(NC(=O)Cc5cccc(OC)c5)s4)C3)s2)c1` (centres unmarked) [Compound 120] was 500 to 1000 nM. Under `COc1ccc(CC(=O)Nc2nnc(C3CCCCC(c4nnc(NC(=O)Cc5ccc(OC)cc5)s4)C3)s2)cc1` (centres unmarked) [Compound 121] stands 1000 to 2000 nM; under `O=C(Cc1ccccn1)Nc1nnc(C2CCCCC(c3nnc(NC(=O)Cc4ccccn4)s3)C2)s1` (centres unmarked) [Compound 122], 1000 to 2000 nM.

`COc1ccccc1CC(=O)Nc1nnc(C2CCCCC(c3nnc(NC(=O)Cc4ccccc4OC)s3)C2)s1` (centres unmarked) [Compound 123] showed an IC50 of 1000 to 2000 nM.

Consider `N#Cc1cccc(CC(=O)Nc2nnc(C3CCCCC(c4nnc(NC(=O)Cc5cccc(C#N)c5)s4)C3)s2)c1` (centres unmarked) [Compound 124], for which the IC50 was 1000 to 2000 nM. `COc1ccccc1CC(=O)Nc1nnc([C@@H]2CCCC[C@H](c3nnc(NC(=O)Cc4ccccc4OC)s3)C2)s1` [Compound 125]: the IC50 fell in the range of 1000 to 2000 nM.

In turn, `O=C(Cc1cccnc1)Nc1nnc(C2CCCCC(c3nnc(NC(=O)Cc4cccnc4)s3)C2)s1` (centres unmarked) [Compound 126] registered an IC50 of 100 to 500 nM. Under `N#Cc1ccccc1CC(=O)Nc1nnc(C2CCCCC(c3nnc(NC(=O)Cc4ccccc4C#N)s3)C2)s1` (centres unmarked) [Compound 127] stands 500 to 1000 nM; under `COc1cccc(CC(=O)Nc2nnc([C@@H]3CCCC[C@H](c4nnc(NC(=O)Cc5cccc(OC)c5)s4)C3)s2)c1` [Compound 128], 500 to 1000 nM. Under `COc1cccc(CC(=O)Nc2nnc([C@@H]3CCCC[C@@H](c4nnc(NC(=O)Cc5cccc(OC)c5)s4)C3)s2)c1` [Compound 129] stands 500 to 1000 nM; under `COc1ccc(CC(=O)Nc2nnc([C@@H]3CCCC[C@@H](c4nnc(NC(=O)Cc5ccc(OC)cc5)s4)C3)s2)cc1` [Compound 130], 1000 to 2000 nM; under `O=C(Cc1cccc2c1OCO2)Nc1nnc([C@H]2CCC[C@H](c3nnc(NC(=O)Cc4cccc5c4OCO5)s3)C2)s1` [Compound 218, N,N′-(5,5′-((1S,3S)-cyclohexane-1,3-diyl)bis(1,3,4-thiadiazole-5,2-diyl))bis(2-(benzo[d][1,3]dioxol-4-yl)acetamide)], less than 100 nM. In turn, `O=C(Cc1cccc(OC(F)(F)F)c1)Nc1nnc([C@H]2CCC[C@H](c3nnc(NC(=O)Cc4cccc(OC(F)(F)F)c4)s3)C2)s1` [Compound 219, N,N′-(5,5′-((1S,3S)-cyclohexane-1,3-diyl)bis(1,3,4-thiadiazole-5,2-diyl))bis(2-(3-(trifluoromethoxy)phenyl)acetamide)] came in with a half-inhibitory concentration (IC50) of 1000 to 2000 nM.

Take `O=C(Cc1cccc(Br)c1)Nc1nnc([C@H]2CCC[C@H](c3nnc(NC(=O)Cc4cccc(Br)c4)s3)C2)s1` [Compound 220, N,N′-(5,5′-((1S,3S)-cyclohexane-1,3-diyl)bis(1,3,4-thiadiazole-5,2-diyl))bis(2-(3-bromophenyl)acetamide)]: the IC50 was in the range of 100 to 500 nM. Under `COc1ccc(CC(=O)Nc2nnc([C@H]3CCC[C@H](c4nnc(NC(=O)Cc5ccc(OC)nc5)s4)C3)s2)cn1` [Compound 221, N,N′-(5,5′-((1S,3S)-cyclohexane-1,3-diyl)bis(1,3,4-thiadiazole-5,2-diyl))bis(2-(6-methoxypyridin-3-yl)acetamide)] stands less than 100 nM; under `O=C(Cc1cscn1)Nc1nnc([C@H]2CCC[C@H](c3nnc(NC(=O)Cc4cscn4)s3)C2)s1` [Compound 222, N,N′-(5,5′-((1S,3S)-cyclohexane-1,3-diyl)bis(1,3,4-thiadiazole-5,2-diyl))bis(2-(thiazol-4-yl)acetamide)], less than 100 nM. Turning to `COc1ccnc(CC(=O)Nc2nnc([C@H]3CCC[C@H](c4nnc(NC(=O)Cc5cc(OC)ccn5)s4)C3)s2)c1` [Compound 223, N,N′-(5,5′-((1S,3S)-cyclohexane-1,3-diyl)bis(1,3,4-thiadiazole-5,2-diyl))bis(2-(4-methoxypyridin-2-yl)acetamide)], the IC50 is less than 100 nM.

In turn, `COc1cc(CC(=O)Nc2nnc([C@H]3CCC[C@H](c4nnc(NC(=O)Cc5ccnc(OC)c5)s4)C3)s2)ccn1` [Compound 224, 2-(2-methoxypyridin-4-yl)-N-[5-[(1S,3S)-3-[5-[[2-(2-methoxypyridin-4-yl)acetyl]amino]-1,3,4-thiadiazol-2-yl]cyclohexyl]-1,3,4-thiadiazol-2-yl]acetamide] had an IC50 of less than 100 nM.

Turning to `COc1ccc(CC(=O)Nc2nnc([C@H]3CCC[C@H](c4nnc(NC(=O)Cc5ccc(OC)cn5)s4)C3)s2)nc1` [Compound 225, N,N′-(5,5′-((1S,3S)-cyclohexane-1,3-diyl)bis(1,3,4-thiadiazole-5,2-diyl))bis(2-(5-methoxypyridin-2-yl)acetamide)], the IC50 is less than 100 nM. The value for `CCOc1ccc(CC(=O)Nc2nnc([C@H]3CCC[C@H](c4nnc(NC(=O)Cc5ccc(OCC)cn5)s4)C3)s2)nc1` [Compound 226, N,N′-(5,5′-((1S,3S)-cyclohexane-1,3-diyl)bis(1,3,4-thiadiazole-5,2-diyl))bis(2-(5-ethoxypyridin-2-yl)acetamide)] was less than 100 nM; that for `O=C(Cc1ccc(OC(F)F)cn1)Nc1nnc([C@H]2CCC[C@H](c3nnc(NC(=O)Cc4ccc(OC(F)F)cn4)s3)C2)s1` [Compound 228, N,N′-(5,5′-((1S,3S)-cyclohexane-1,3-diyl)bis(1,3,4-thiadiazole-5,2-diyl))bis(2-(5-(difluoromethoxy)pyridin-2-yl)acetamide)] was less than 100 nM.

`N#Cc1cccc(CC(=O)Nc2nnc([C@H]3CCC[C@H](c4nnc(NC(=O)Cc5cccc(C#N)n5)s4)C3)s2)n1` [Compound 229, N,N′-(5,5′-((1S,3S)-cyclohexane-1,3-diyl)bis(1,3,4-thiadiazole-5,2-diyl))bis(2-(6-cyanopyridin-2-yl)acetamide)] had an IC50 of less than 100 nM. The value for `O=C(Cc1ccncn1)Nc1nnc([C@H]2CCC[C@H](c3nnc(NC(=O)Cc4ccncn4)s3)C2)s1` [Compound 230, N,N′-(5,5′-((1S,3S)-cyclohexane-1,3-diyl)bis(1,3,4-thiadiazole-5,2-diyl))bis(2-(pyrimidin-4-yl)acetamide)] was 1000 to 2000 nM; that for `O=C(Cc1cccnn1)Nc1nnc([C@H]2CCC[C@H](c3nnc(NC(=O)Cc4cccnn4)s3)C2)s1` [Compound 231, N,N′-(5,5′-((1S,3S)-cyclohexane-1,3-diyl)bis(1,3,4-thiadiazole-5,2-diyl))bis(2-(pyridazin-3-yl)acetamide)] was 100 to 500 nM.
